# Entries after “also recorded” stand apart in the source; their conditions may differ.
# Experiments:
# [1] = test system: Calvarial osteoblast cells; experiment: MTT cell proliferation assay; type: cell-based, rat; details: 10^−10 M to 10^−6M, 24 hrs
# Method: (§1) Neonatal rat calvarial cell cultures are prepared as described previously (Endocrinology 145:3451) using slight modification. Briefly, for primary osteoblast cell cultures, frontal and parietal bones from Sprague-Dawley rat neonates (1-3 day old) are digested in 0.1% collagenase/0.1% dispase in α-MEM to obtain 5 sequential digests. The second through fifth digests are combined and grown to confluence at 37° C. and 5% CO2 in air in α-MEM, supplemented with 10% fetal bovine serum (FBS), 2 mM glutamine, 100 U/ml penicillin-streptomycin, Non-essential amino acid solution and sodium pyruvate.
# MTT [3-(4,5-dimethylthiazol-2-yl)-2,5-diphenyltetrazolium bromide] assay, first described by Mosmann in 1983, is based on the ability of a mitochondrial dehydrogenase enzyme from viable cells to cleave the tetrazolium rings of the pale yellow MTT and form a dark blue formazan crystals which is largely impermeable to cell membranes, thus resulting in its accumulation within healthy cells. Solubilisation of the cells by the addition of a detergent results in the liberation of the crystals which are solubilized. The number of surviving cells is directly proportional to the level of the formazan product created. The color can then be quantified using a simple colorimetric assay. The results can be read on a multiwell scanning spectrophotometer (Mosmann T. Rapid colorimetric assay for cellular growth and survival: application to proliferation and cytotoxicity assays. J Immunol Methods. 1983 Dec. 16; 65(1-2):55-63).
# Calvarial osteoblast cells plated at a density of 2.0×10^3 cells/200 ul in 96 wells plates. Cells were grown to 60% confluency and then treated with following compounds S006-1709, S006-1710, 5006-1711, S006-1713 and; S006-1714 at concentrations ranging from 10^−10 M to 10^−6M for 24 hrs. After treatment media was removed and 10 mM MTT was added solution in phenol red free DMEM media. After an incubation of 4 hrs the MTT solution was removed. Blue colored crystals were formed which were dissolved in DMSO and absorbance was read on ELISA plate reader at 570 nm wavelength.
# [2] = test system: Calvarial osteoblasts; experiment: Alkaline phosphatase (ALP) activity for osteoblast differentiation, calvarial osteoblasts; type: cell-based, rat; details: calvarial osteoblasts, 48 h, 10^−16M to 10^−6M
# Method: as §1
# 70 to 80% confluent Calvarial osteoblasts were treated with μM S006-1709 for 48 h in the presence of ascorbate and glycerophosphate. At the end of incubation period, total ALP activity was measured with a method using p-nitrophenylphosphate (PNPP) as substrate. The reaction mixture contained diethanolamine buffer (1 mol/L, pH 9.8), 0.5 mmol/L MgCl2.6H2O, and 10 mmol/L PNPP. ALP activity was measured by taking OD of the amount of colored product formed by the dephosphorylation of PNPP at 405 nm. […] In addition, the effect of S006-1709 on mineralization of calvarial osteoblasts was studied.
# (§2) We then studied its effect in osteoblast differentiation in both calvarial and bone marrow osteoblasts. Confluent calvarial osteoblasts (70 to 80%) were treated with S006-1710 for 48 h in the presence of ascorbate and glycerophosphate at concentrations ranging from 10^−16M to 10^−6M. At the end of incubation period, total ALP activity was measured with the same method used previously using p-nitrophenylphosphate (PNPP) as substrate.
# 70 to 80% confluent Calvarial osteoblasts were treated with S007-1351 for 48 h in the presence of ascorbate and glycerophosphate. At the end of incubation period, total ALP activity was measured with a method using p-nitrophenylphosphate (PNPP) as substrate. The reaction mixture contained diethanolamine buffer (1 mol/L, pH 9.8), 0.5 mmol/L MgCl2.6H2O, and 10 mmol/L PNPP. ALP activity was measured by taking OD of the amount of colored product formed by the dephosphorylation of PNPP at 405 nm.
# 70 to 80% confluent calvarial osteoblasts were treated with S007-1352 for 48 h in the presence of ascorbate and glycerophosphate at concentrations ranging from 10^−12M to 10^−6 M. At the end of incubation period, total ALP activity was measured with the same method used previously using p-nitrophenylphosphate (PNPP) as substrate.
# [3] = test system: bone marrow derived osteoblasts; experiment: ALP activity in bone marrow derived osteoblasts; type: cell-based; details: 10^−16M to 10^−6M
# Method: as §2
# [4] = test system: Calvarial osteoblasts; experiment: Mineralization of calvarial osteoblasts (Alizarin red extraction); type: cell-based, rat; details: 10^−12 M and 10^−10 M
# [5] = test system: bone marrow osteoblasts; experiment: Mineralization of bone marrow osteoblasts (Alizarin red extraction); type: cell-based; details: 10^−12M and 10^−10 M, 18 d bone marrow culture
# Description: In addition, the effect of S006-1709 on mineralization of bone marrow osteoblasts was also studied.
# In addition, the effect of S006-1710 on mineralization of bone marrow osteoblasts was also studied.
# [6] = test system: ovariectomized immature female rats; experiment: Estrogenicity, uterine fresh weight in ovariectomized immature female rats; type: in vivo, rat; details: 10 mg/Kg oral; for Estrogenic Activity, % (second line of cell): relative to vehicle; for Estrogenic Activity (uterine fresh weight): three consecutive days, vehicle 16.46
# Method: (§3) 21 day old immature female rats (25-30 grams) were ovariectomized and given 7 days post-operative rest. Thereafter they were treated orally with the test agent (10 mg/Kg body weight) or with vehicle or Ethynyl estradiol, the reference standard for three consecutive days. For anti-estrogenicity, other than the test chemical, ethynyl estradiol (0.01 mg/kg) was given at 15 minutes interval before the test chemical. Autopsy was done 24 h after last treatment and uterine fresh weight was taken.
# [7] = test system: ovariectomized immature female rats; experiment: Anti-estrogenicity, uterine fresh weight with ethynyl estradiol co-treatment; type: in vivo, rat; details: 10 mg/Kg oral plus ethynyl estradiol 0.01 mg/kg; for Anti-Estrogenic Activity, % (second line of cell): relative to ethynyl estradiol
# Method: as §3
Compound,effect on osteoblast proliferation (MTT) [1],osteoblast ALP activity vs vehicle control [2],ALP activity in bone marrow derived osteoblasts [3],"mineralization of calvarial osteoblasts (nascent calcium deposition, Alizarin red) [4]","mineralization of bone marrow osteoblasts (nascent calcium deposition, Alizarin red) [5]",estrogenicity (in words) [6],"Estrogenic Activity, % (second line of cell) [6] [%]",Estrogenic Activity (uterine fresh weight) [6],Anti-Estrogenic Activity (uterine fresh weight) [7],anti-estrogenicity (in words) [7],"Anti-Estrogenic Activity, % (second line of cell) [7] [%]",melting point [°C]
"O=c1c(-c2ccccc2O)coc2cc(O)ccc12 [Compound S006-1711, 7-Hydroxy-3-(2-hydroxy-phenyl)-chromen-4-one]",did not have any effect,stimulated ALP activity,stimulated ALP activity,stimulated mineralization,stimulated mineralization,estrogenic,192,48.13,85.16,not found to be anti-estrogenic,13,196 to 198
"COc1ccccc1-c1coc2cc(O)ccc2c1=O [Compound S006-1710, 7-Hydroxy-3-(2-methoxy-phenyl)-chromen-4-one]",no osteoblast proliferating action,significant increase,,stimulate mineralization,stimulate mineralization; also recorded: significant increase,estrogenic,446,89.96,79.9,not found to be anti-estrogenic,19,

# From patent US8686028B2, “Substituted benzfurochromenes and related compounds for the prevention and treatment of bone related disorders” (Council of Scientific & Industrial Research, priority 2008, dated 2014)
